Literature values as cited in PMC10386743, “Application of Ligand- and Structure-Based Prediction Models for the Design of Alkylhydrazide-Based HDAC3 Inhibitors as Novel Anti-Cancer Compounds” (Pharmaceuticals, 2023).

Tested on: HDAC3
Details: for pIC50 HDAC3 (HDAC3 experimental pIC50): newly designed compounds; for activity on HDAC3 (in words): experimentally determined

Row | pIC50 HDAC3 (HDAC3 experimental pIC50) | Compound | further results
1 | 6.96 | CCCNNC(=O)c1cnc(NCc2ccc(CNC(C)=O)cc2)nc1 [Compound 80] | –
2 | 7.43 | CCCNNC(=O)c1cnc(NCc2ccc(Cl)cc2)nc1 [Compound 77] | –
3 | 5.52 | CCCCCCNNC(=O)c1cnc(NCc2ccccc2)nc1 [Compound 83] | –

Second part, the compound before the results:

Row | Compound | pIC50 HDAC3 (HDAC3 experimental pIC50) | further results
4 | CCCCCCNNC(=O)c1ccc(-c2ccc(CNC(C)=O)cc2)cc1 [Compound 67] | <5.00 | –
5 | CCCCCCNNC(=O)c1cccc(NCc2ccccc2)c1 [Compound 70] | <5.00 | activity on HDAC3 (in words): did not show significant activity
6 | CCCNNC(=O)c1cnc(NCc2ccccc2Cl)nc1 [Compound 76] | 7.22 | –
7 | CCCCCNNC(=O)c1ccc(-c2ccc(CNC(C)=O)cc2)cc1 [Compound 66] | 5.82 | –
8 | CCCNNC(=O)c1cnc(NCCc2ccccc2)nc1 [Compound 74] | – | HDAC3 inhibition @1 µM (1 µM): 41%@1 µM; HDAC3 inhibition @10uM (10uM): 87%; activity on HDAC3 (in words): did not show significant inhibitory activity
